Results reported in ChEMBL document CHEMBL4033695, “Synthesis and biological evaluation of novel 5-aryl-4-(5-nitrofuran-2-yl)-pyrimidines as potential anti-bacterial agents” (Bioorg Med Chem Lett, 2017).
pIC50: −log10 of the molar value. Converted amounts (≈) assume the structure as drawn.

Assays:
[1] = system: Mycobacterium tuberculosis; assay: Antitubercular activity against Mycobacterium tuberculosis H37Rv after […] by micro broth dilution method; type: functional
[2] = system: Neisseria gonorrhoeae; assay: Antibacterial activity against Neisseria gonorrhoeae NCTC 8375/ATCC 19424 by two-fold serial dilution method; type: functional
[3] = system: Citrobacter braakii; assay: Antibacterial activity against Citrobacter braakii ATCC 101/57 by two-fold serial dilution method; type: functional
[4] = system: Pseudomonas aeruginosa; assay: Antibacterial activity against Pseudomonas aeruginosa ATCC 9027 by two-fold serial dilution method; type: functional
[5] = system: Shigella flexneri; assay: Antibacterial activity against Shigella flexneri RCPM 1a8516 by two-fold serial dilution method; type: functional
[6] = system: Serratia marcescens; assay: Antibacterial activity against Serratia marcescens ATCC 13880 by two-fold serial dilution method; type: functional
[7] = system: Proteus vulgaris; assay: Antibacterial activity against Proteus vulgaris RCPM 160125 (222) by two-fold serial dilution method; type: functional
[8] = system: Staphylococcus aureus; assay: Antibacterial activity against Staphylococcus aureus ATCC 25923 by two-fold serial dilution method; type: functional
[9] = system: Staphylococcus aureus; assay: Potency index, ratio of spectinomycin MIC to compound MIC for Staphylococcus aureus ATCC 25923; type: functional
[10] = system: Neisseria gonorrhoeae; assay: Antibacterial activity against gonorrhea patient derived azithromycin resistant-Neisseria gonorrhoeae by two-fold serial dilution method; type: functional
[11] = Cytotoxicity against mouse MacCoy B cells after 24 hrs by p-Nitro-Blue tetrazolium chloride dye based colorometric method; type: cell-based
[12] = system: Klebsiella pneumoniae; assay: Antibacterial activity against Klebsiella pneumoniae ATCC 13883 by two-fold serial dilution method; type: functional
[13] = system: Neisseria gonorrhoeae; assay: Antibacterial activity against Neisseria gonorrhoeae NCTC 12700/ATCC 49226 by two-fold serial dilution method; type: functional
[14] = system: Neisseria gonorrhoeae; assay: Potency index, ratio of spectinomycin MIC to compound MIC for Neisseria gonorrhoeae NCTC 8375/ATCC 19424; type: functional
[15] = system: Neisseria gonorrhoeae; assay: Potency index, ratio of spectinomycin MIC to compound MIC for Neisseria gonorrhoeae NCTC 12700/ATCC 49226; type: functional
[16] = system: Escherichia coli; assay: Antibacterial activity against Escherichia coli ATCC 8739 by two-fold serial dilution method; type: functional
[17] = Toxicity in mouse administered as single oral dose measured for 14 days; conditions: in vivo
[18] = Potency index, ratio of compound LD50 to isoniazid LD50 for mouse; type: ADME; conditions: in vivo
[19] = Toxicity in orally dosed mouse; type: organism-based; conditions: in vivo, po

SMILES	MIC [1] [µg/mL]	MIC [2] [µg/mL]	MIC [3] [µg/mL]	MIC [4] [µg/mL]	MIC [5] [µg/mL]	MIC [6] [µg/mL]	MIC [7] [µg/mL]	MIC [8] [µg/mL]	Ratio [9]	MIC [10] [µg/mL]	pIC50 [11]	MIC [12] [µg/mL]	MIC [13] [µg/mL]	Ratio [14]	Ratio [15]	MIC [16] [µg/mL]	LD50 at 336 h [17] [mg/kg]	selectivity ratio [18]	LD50 [19] [mg/kg]
O=[N+]([O-])c1ccc(-c2ncncc2-c2cc(F)cc(F)c2)o1	12.5 (≈ 41.2 µM)	> 1000	–	–	–	–	–	–	–	–	–	–	–	–	–	–	–	–	–
NC(=O)c1cnccn1 [PYRAZINAMIDE]	12.5 (≈ 102 µM)	–	–	–	–	–	–	–	–	–	–	–	–	–	–	–	–	–	–
O=[N+]([O-])c1ccc(-c2ncncc2-c2ccc(C(F)(F)F)cc2C(F)(F)F)o1	12.5 (≈ 31 µM)	1000 (≈ 2480 µM)	> 500	> 500	> 250	> 500	> 250	15.6 (≈ 38.7 µM)	4	1000 (≈ 2480 µM)	4.34	> 500	3.9 (≈ 9.67 µM)	<=16	<=16	> 500	–	–	–
O=[N+]([O-])c1ccc(-c2ncncc2-c2ccc(C(F)(F)F)cc2)o1	12.5 (≈ 37.3 µM)	500 (≈ 1490 µM)	–	–	–	–	–	–	–	–	–	–	–	–	–	–	–	–	–
O=[N+]([O-])c1ccc(-c2ncncc2Br)o1	1.5 (≈ 5.55 µM)	7.8 (≈ 28.9 µM)	> 250	> 250	7.8 (≈ 28.9 µM)	> 250	> 250	7.8 (≈ 28.9 µM)	4	3.9 (≈ 14.4 µM)	3.78	> 250	0.97 (≈ 3.59 µM)	<=16	<=16	> 250	300	2	–
O=[N+]([O-])c1ccc(-c2ncncc2-c2ccccc2F)o1	12.5 (≈ 43.8 µM)	7.8 (≈ 27.3 µM)	> 250	> 250	> 250	> 250	> 250	15.6 (≈ 54.7 µM)	4	7.8 (≈ 27.3 µM)	4.17	> 250	1.95 (≈ 6.84 µM)	<=16	<=16	> 250	–	–	–
O=[N+]([O-])c1ccc(-c2ncncc2-c2ccc(F)cc2F)o1	12.5 (≈ 41.2 µM)	31.2 (≈ 103 µM)	> 500	> 500	> 250	> 500	> 250	31.2 (≈ 103 µM)	4	31.2 (≈ 103 µM)	4.17	> 500	3.9 (≈ 12.9 µM)	<=16	<=16	> 500	–	–	–
O=[N+]([O-])c1ccc(-c2ncncc2-c2cc(C(F)(F)F)cc(C(F)(F)F)c2)o1	12.5 (≈ 31 µM)	> 1000	–	–	–	–	–	–	–	–	–	–	–	–	–	–	–	–	–
CN[C@@H]1[C@H](O)[C@H](NC)[C@H]2O[C@@]3(O)C(=O)C[C@@H](C)O[C@H]3O[C@@H]2[C@H]1O [SPECTINOMYCIN]	–	15.6 (≈ 46.9 µM)	31.2 (≈ 94 µM)	250 (≈ 752 µM)	7.8 (≈ 23.5 µM)	15.6 (≈ 46.9 µM)	125 (≈ 376 µM)	31.2 (≈ 94 µM)	–	15.6 (≈ 46.9 µM)	< 3.12	15.6 (≈ 46.9 µM)	15.6 (≈ 46.9 µM)	–	–	15.6 (≈ 46.9 µM)	–	–	> 10000
NNC(=O)c1ccncc1 [ISONIAZID]	0.1 (≈ 0.729 µM)	–	–	–	–	–	–	–	–	–	–	–	–	–	–	–	–	–	–
O=[N+]([O-])c1ccc(-c2ncncc2-c2cccc(C(F)(F)F)c2)o1	12.5 (≈ 37.3 µM)	125 (≈ 373 µM)	–	–	–	–	–	–	–	–	–	–	–	–	–	–	–	–	–
O=[N+]([O-])c1ccc(-c2ncncc2-c2ccc(F)cc2)o1	12.5 (≈ 43.8 µM)	15.6 (≈ 54.7 µM)	–	–	–	–	–	62.5 (≈ 219 µM)	4	31.2 (≈ 110 µM)	4.16	–	31.2 (≈ 110 µM)	<=16	<=16	–	–	–	–
O=[N+]([O-])c1ccc(-c2ncncc2-c2cccc(F)c2)o1	12.5 (≈ 43.8 µM)	3.9 (≈ 13.7 µM)	> 250	> 250	> 250	> 250	> 250	> 250	4	15.6 (≈ 54.7 µM)	4.00	> 250	0.97 (≈ 3.4 µM)	<=16	<=16	> 250	–	–	–
O=[N+]([O-])c1ccc(-c2ncncc2-c2ccccc2C(F)(F)F)o1	12.5 (≈ 37.3 µM)	15.6 (≈ 46.5 µM)	> 250	> 250	62.5 (≈ 186 µM)	> 250	> 250	15.6 (≈ 46.5 µM)	4	15.6 (≈ 46.5 µM)	4.13	> 250	3.9 (≈ 11.6 µM)	<=16	<=16	> 250	–	–	–
O=[N+]([O-])c1ccc(-c2ncncc2-c2ccccc2)o1	3.1 (≈ 11.6 µM)	3.9 (≈ 14.6 µM)	> 250	> 250	> 250	> 250	> 250	15.6 (≈ 58.4 µM)	4	7.8 (≈ 29.2 µM)	4.28	> 250	1.95 (≈ 7.3 µM)	<=16	<=16	> 250	450	3	–
